Measurements: patent publication US6518303B2, “2-phenylpyran-4-one derivatives” (Almirall Prodesfarma S.A., priority 1999, dated 2003)

What was measured:
COX-1 = target: T1, COX-1 (Homo sapiens, UniProt P23219); assay: COX-1 activity in human whole blood (TXB2, calcium ionophore A23187); assay type: cell-based; conditions: 1 h at 37° C., TXB2 ELISA
T1 construct: Fresh blood from healthy volunteers; endogenous in cells; host or cells: fresh heparinized human whole blood stimulated with calcium ionophore A23187
Procedure: For the COX-1 activity determination, 500 μl aliquots of blood were incubated with either 5 μl vehicle (dimethylsulphoxide) or 5 μl of a test compound for 1 h at 37° C. […] Plasma was separated by centrifugation (10 min at 13000 rpm) and kept at −30° C. until TXB2 levels were measured using an enzyme immunoassay kit (ELISA). The effect of the compounds were evaluated by incubating each compound at five to six different concentrations with triplicate determinations. IC50 values were obtained by non-linear regression using InPlot, GraphPad software on an IBM computer.

COX-2 = target: T2, COX-2 (Homo sapiens, UniProt P35354); assay: COX-2 activity in human whole blood (PGE2, LPS-induced); assay type: cell-based; conditions: for IC50: human whole blood, LPS 10 μg/ml 24 h at 37° C., PGE2 ELISA; for Ratio COX-1/COX-2: ratio of whole blood IC50 values
T2 construct: incubated in the presence of LPS (10 μg/ml) for 24 h at 37° C. in order to induce The COX-2 expression; endogenous in cells; host or cells: fresh heparinized human whole blood, COX-2 induced with LPS for 24 h
T2 sequence (P35354 18-604): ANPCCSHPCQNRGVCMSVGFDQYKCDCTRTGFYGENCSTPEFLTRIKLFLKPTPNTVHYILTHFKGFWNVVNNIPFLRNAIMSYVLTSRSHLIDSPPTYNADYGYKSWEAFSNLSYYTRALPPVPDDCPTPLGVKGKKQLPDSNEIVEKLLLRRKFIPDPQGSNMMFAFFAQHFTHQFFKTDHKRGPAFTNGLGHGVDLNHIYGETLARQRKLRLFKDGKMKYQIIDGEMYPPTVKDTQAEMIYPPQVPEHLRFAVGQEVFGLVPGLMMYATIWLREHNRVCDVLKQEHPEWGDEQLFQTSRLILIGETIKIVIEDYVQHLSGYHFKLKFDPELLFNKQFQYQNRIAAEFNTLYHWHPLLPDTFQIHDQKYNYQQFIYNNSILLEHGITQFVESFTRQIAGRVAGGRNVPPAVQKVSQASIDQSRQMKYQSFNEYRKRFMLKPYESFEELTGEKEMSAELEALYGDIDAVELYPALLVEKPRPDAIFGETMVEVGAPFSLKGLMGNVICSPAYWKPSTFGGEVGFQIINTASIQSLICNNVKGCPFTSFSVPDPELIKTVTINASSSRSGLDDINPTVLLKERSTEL
Procedure: Plasma was separated by centrifugation (10 min at 13000 rpm.) and kept at −30° C. until PGE2 levels were measured using an enzyme immunoassay kit (ELISA). The effects of inhibitors were studied by incubating each compound (5 μl aliquots) at five to six different concentrations with triplicate determinations in the presence of LPS for 24 hours. IC50 values were obtained by non-linear regression using InPlot, GraphPad software on an IBM computer.

T1 sequence (P23219 24-599): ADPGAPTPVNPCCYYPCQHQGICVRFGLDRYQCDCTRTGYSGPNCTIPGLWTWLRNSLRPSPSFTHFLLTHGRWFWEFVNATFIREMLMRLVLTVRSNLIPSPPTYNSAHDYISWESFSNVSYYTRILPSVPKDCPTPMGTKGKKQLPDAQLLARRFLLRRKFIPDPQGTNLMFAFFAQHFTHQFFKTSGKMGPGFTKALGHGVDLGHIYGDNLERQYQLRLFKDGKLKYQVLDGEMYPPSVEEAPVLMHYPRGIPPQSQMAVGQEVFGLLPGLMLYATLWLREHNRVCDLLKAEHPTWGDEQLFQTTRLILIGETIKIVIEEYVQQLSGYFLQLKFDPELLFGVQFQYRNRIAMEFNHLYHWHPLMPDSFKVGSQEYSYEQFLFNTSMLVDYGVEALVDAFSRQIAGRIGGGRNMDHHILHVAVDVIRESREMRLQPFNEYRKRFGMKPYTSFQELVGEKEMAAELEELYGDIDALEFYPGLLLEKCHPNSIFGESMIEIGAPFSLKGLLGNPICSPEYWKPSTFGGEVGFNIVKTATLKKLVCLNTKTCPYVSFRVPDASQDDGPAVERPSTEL

| SMILES | IC50 (COX-1) [µM] | IC50 (COX-2) [µM] | Ratio COX-1/COX-2 (COX-2) | melting point [°C] |
| --- | --- | --- | --- | --- |
| Cc1cc(=O)c(Cc2ccccc2)c(-c2ccc(S(C)(=O)=O)cc2)o1 [Compound 37] | > 100 | 1.08 | >92 | 137 |
| CS(=O)(=O)c1ccc(-c2oc(C#N)cc(=O)c2-c2ccc(F)cc2F)cc1 [Compound 59, 5-(2,4-difluorophenyl)-6-(4-methanesulfonylphenyl)-4-oxo-4H-pyran-2-carbonitrile] | – | – | – | 113 |
| Cc1cc(=O)c(-c2ccccc2F)c(-c2ccc(S(C)(=O)=O)cc2)o1 [Compound 4, 3-(2-fluorophenyl)-2-(4-methanesulfonylphenyl)-6-methylpyran-4-one] | > 100 | 1.5 | >66 | 136 to 137 |
| Cc1cc(=O)c(-c2cccc(Cl)c2)c(-c2ccc(S(C)(=O)=O)cc2)o1 [Compound 6, 3-(3-chlorophenyl)-2-(4-methanesulfonylphenyl)-6-methylpyran-4-one] | – | – | – | 131 |
| COCc1cc(=O)c(-c2ccc(Cl)cc2)c(-c2ccc(S(C)(=O)=O)cc2)o1 [Compound 63, 3-(4-chlorophenyl)-2-(4-methanesulfonylphenyl)-6-methoxymethylpyran-4-one] | 44 | 1.73 | 25 | – |
| Cc1cc(=O)c(-c2c(F)cccc2F)c(-c2ccc(S(C)(=O)=O)cc2)o1 [Compound 19, 3-(2,6-difluorophenyl)-2-(4-methanesulfonylphenyl)-6-methylpyran-4-one] | – | – | – | 206 |
| Cc1cc(=O)c(Oc2cc(F)ccc2F)c(-c2ccc(S(C)(=O)=O)cc2)o1 [Compound 47, 3-(2,5-difluorophenoxy)-2-(4-methanesulfonylphenyl)-6-methylpyran-4-one] | 57.1 | 0.8 | 71 | 189 |
| Cc1cc(=O)c(Oc2ccc(Cl)cc2)c(-c2ccc(S(N)(=O)=O)cc2)o1 [Compound 57, 4-[3-(4-chlorophenoxy)-6-methyl-4-oxo-4H-pyran-2-yl]benzenesulfonamide] | – | – | – | 221 |
| Cc1cc(=O)c(-c2ccccc2Cl)c(-c2ccc(S(C)(=O)=O)cc2)o1 [Compound 7, 3-(2-chlorophenyl)-2-(4-methanesulfonylphenyl)-6-methylpyran-4-one] | – | – | – | 148 |
| Cc1cc(=O)c(-c2ccc(F)cc2Cl)c(-c2ccc(S(C)(=O)=O)cc2)o1 [Compound 27, 3-(2-chloro-4-fluorophenyl)-2-(4-methanesulfonylphenyl)-6-methylpyran-4-one] | – | – | – | 113 |
| Cc1cc(=O)c(-c2ccc(Cl)c(Cl)c2)c(-c2ccc(S(N)(=O)=O)cc2)o1 [Compound 56, 4-[3-(3,4-dichlorophenyl)-6-methyl-4-oxo-4H-pyran-2-yl]benzenesulfonamide] | – | – | – | 128 |
| Cc1cc(=O)c(Oc2ccccc2F)c(-c2ccc(S(C)(=O)=O)cc2)o1 [Compound 40, 3-(2-fluorophenoxy)-2-(methanesulfonylphenyl)-6-methylpyran-4-one] | 27 | 0.14 | 193 | – |
| Cc1cccc(-c2c(-c3ccc(S(C)(=O)=O)cc3)oc(C)cc2=O)c1 [Compound 11, 2-(4-methanesulfonylphenyl)-6-methyl-3-m-tolylpyran-4-one] | – | – | – | 126 |
| Cc1ccc(-c2c(-c3ccc(S(C)(=O)=O)cc3)oc(C)cc2=O)cc1 [Compound 10, 2-(4-methanesulfonylphenyl)-6-methyl-3-p-tolylpyran-4-one] | – | – | – | 205 |
| Cc1cc(=O)c(-c2ccc(Cl)cc2Cl)c(-c2ccc(S(C)(=O)=O)cc2)o1 [Compound 21, 3-(2,4-dichlorophenyl)-2-(4-methanesulfonylphenyl)-6-methylpyran-4-one] | – | – | – | 203 |
| CS(=O)(=O)c1ccc(-c2oc(CO)cc(=O)c2-c2ccc(Cl)cc2)cc1 [Compound 60, 3-(4-chlorophenyl)-6-hydroxymethyl-2-(4-methanesulfonylphenyl)pyran-4-one] | – | – | – | 120 |
| Cc1cc(=O)c(-c2ccc(F)c(F)c2)c(-c2ccc(S(C)(=O)=O)cc2)o1 [Compound 16, 3-(3,4-difluorophenyl)-2-(4-methanesulfonylphenyl)-6-methylpyran-4-one] | – | – | – | 207 |

| SMILES | IC50 (COX-1) [µM] | IC50 (COX-2) [µM] | Ratio COX-1/COX-2 (COX-2) | melting point [°C] |
| --- | --- | --- | --- | --- |
| Cc1cc(=O)c(-c2cccc(F)c2)c(-c2ccc(S(C)(=O)=O)cc2)o1 [Compound 3, 3-(3-fluorophenyl)-2-(4-methanesulfonylphenyl)-6-methylpyran-4-one] | – | – | – | 182 |
| Cc1cc(=O)c(Oc2ccccc2Cl)c(-c2ccc(S(C)(=O)=O)cc2)o1 [Compound 42, 3-(2-chlorophenoxy)-2-(methanesulfonylphenyl)-6-methylpyran-4-one] | 41 | 0.2 | 205 | – |
| Cc1cc(=O)c(-c2cc(F)cc(F)c2)c(-c2ccc(S(C)(=O)=O)cc2)o1 [Compound 17, 3-(3,5-difluorophenyl)-2-(4-methanesulfonylphenyl)-6-methylpyran-4-one] | – | – | – | 210 |
| Cc1cc(=O)c(Oc2ccccc2)c(-c2ccc(S(C)(=O)=O)cc2)o1 [Compound 38, 2-(4-methanesulfonylphenyl)-6-methyl-3-phenoxypyran-4-one] | – | – | – | 169 |
| COCc1cc(=O)c(-c2ccc(Cl)cc2)c(-c2ccc(S(C)(=O)=O)cc2)o1 (hydrate or solvate) [Compound 63, 3-(4-chlorophenyl)-2-(4-methanesulfonylphenyl)-6-methoxymethylpyran-4-one] | – | – | – | 162 |
| Cc1cc(=O)c(-c2ccc(F)cc2)c(-c2ccc(S(N)(=O)=O)cc2)o1 [Compound 55, 4-[3 (4-fluorophenyl)-6-methyl-4-oxo-4H-pyran-2-yl]benzenesulfonamide] | – | – | – | 247 |
| Cc1cc(=O)c(-c2ccccc2C)c(-c2ccc(S(C)(=O)=O)cc2)o1 [Compound 12, 2-(4-methanesulfonylphenyl)-6-methyl-3-o-tolylpyran-4-one] | – | – | – | 91 to 93 |
| Cc1cc(=O)c(C2CCCCC2)c(-c2ccc(S(C)(=O)=O)cc2)o1 [Compound 33, 3-cyclohexyl-2-(4-methanesulfonylphenyl)-6-methylpyran-4-one] | – | – | – | 98 to 99 |
| Cc1cc(=O)c(-c2ccccc2)c(-c2ccc(S(N)(=O)=O)cc2)o1 [Compound 54, 4-(6-methyl-4-oxo-3-phenyl-4H-pyran-2-yl)benzenesulfonamide] | – | – | – | 218 |
| Cc1cc(=O)c(-c2ccccc2)c(-c2ccc(S(C)(=O)=O)cc2)o1 [Compound 1, 2-(4-methanesulfonylphenyl) -6-methyl-3-phenylpyran-4-one] | – | – | – | 185 |
| Cc1cc(=O)c(-c2ccc(F)cc2F)c(-c2ccc(S(C)(=O)=O)cc2)o1 [Compound 15, 3-(2,4-difluorophenyl)-2-(4-methanesulfonylphenyl)-6-methylpyran-4-one] | – | 1.1 | 90 | 208 |
| Cc1cc(=O)c(-c2ccc(C)c(Cl)c2)c(-c2ccc(S(C)(=O)=O)cc2)o1 [Compound 29, 3-(3-chloro-4-methylphenyl)-2-(4-methanesulfonylphenyl)-6-methylpyran-4-one] | – | – | – | 176 |
| CS(=O)(=O)c1ccc(-c2oc(C(=O)O)cc(=O)c2-c2ccc(Cl)cc2)cc1 [Compound 65, 5-(4-chlorophenyl)-6-(4-methanesulfonylphenyl)-4-oxo-4H-pyran-2-carboxylic acid] | – | – | – | 236 |
| Cc1ccc(Oc2c(-c3ccc(S(C)(=O)=O)cc3)oc(C)cc2=O)cc1 [Compound 44, 2-(4-methanesulfonylphenyl)-6-methyl-3-(4-methylphenoxy) pyran-4-one] | 39 | – | – | 183 |
| Cc1cc(=O)c(-c2ccc(C(F)(F)F)cc2)c(-c2ccc(S(C)(=O)=O)cc2)o1 [Compound 13, 2-(4-methanesulfonylphenyl)-6-methyl-3-(4-trifluoromethylphenyl)pyran-4-one] | – | – | – | 172 |
| Cc1cc(=O)c(-c2cc(F)ccc2F)c(-c2ccc(S(C)(=O)=O)cc2)o1 [Compound 18, 3-(2,5-difluorophenyl)-2-(4-methanesulfonylphenyl)-6-methylpyran-4-one] | – | – | – | 183 |
